Measurements as given in publication PMC12316891, “A bottom-up approach to find lead compounds in expansive chemical spaces” (Communications Chemistry, 2025).

Tests used:
[1] = biological target: T1, BRD4 (BD1) (Homo sapiens, UniProt O60885); assay: Differential scanning fluorimetry (DSF) single-dose thermal shift screening; assay type: binding; conditions: DSF, compound 10 µM, BRD4 (BD1) 2 µM, n = 3, decimal comma; read-out: ΔTm ºC at [10 µM]
T1 construct: A pET28 plasmid containing residues 44–168 of BRD4 (BD1), a 6xHis tag, a TEV protease cleavage site; 6xHis (N, cleaved yes); made in house; host or cells: E. coli Rosetta (D3)

[2] = biological target: T2, His6-BRD4 (BD1) (Homo sapiens, UniProt O60885); assay: Surface plasmon resonance (SPR) single-dose screening; assay type: binding; design: key to SPR RESULT: Positive: compounds were considered as SPR hits also when their average signal was further than two standard deviations apart from the average signal of the blank samples (1% DMSO); conditions: for RUs at [10 µM]: SPR, compound 10 µM, 1% DMSO, n = 2, decimal comma; for SPR RESULT: single dose 10 µM, n = 2
T2 construct: A pET28 plasmid containing residues 44–168 of BRD4 (BD1), a 6xHis tag, a TEV protease cleavage site; made in house; host or cells: E. coli Rosetta (D3)

[3] = biological target: T1, BRD4 (BD1); assay: Competitive HTRF TR-FRET binding assay (displacement of acetylated histone H4 peptide); conditions: for IC50 / TR-FRET IC50 (nM): 16-point titration 0.1 nM to 10 µM, n = 2, Negative = curve could not be fitted to a sigmoidal curve; for IC50: read-out: TR-FRET IC50
Experimental: To further quantitatively characterize the DSF/SPR hits compounds obtained in the single-dose screenings, we selected HTRF TR-FRET. Specifically, we employed a competitive HTRF TR-FRET experiment to measure the compound’s capacity to displace an acetylated peptide from the binding site of BRD4 (BD1). For each molecule, a 16-point concentration curve was titrated against the peptide-BRD (BD1) complex and incubated for 1.5 h. A compound was considered a positive binder if we could fit its titration curve to a sigmoidal curve to determine its IC50. […] Compound screening was carried out in 384-well, white, round-bottom, small-volume plates (CORNING) in a final volume of 20 µL of 50 mM HEPES (pH 7.4), 50 mM NaCl, 400 mM KF, 0.5 mM CHAPS, and 0.05% BSA. […] Then, the labeled anti-His6-XL665 antibody (CisBio) (10 nM) was added to the mixture and incubated for 15 min, before the Eu3+ cryptate-conjugated streptavidin (2 nM) (CisBio) was added and incubated for 15 min. All incubations were performed at room temperature. […] Titration of (+)−JQ1 was used as a positive control for each experiment.

Row | Structure (SMILES) | ΔTm at 10 µM [1] | RUs at [10 µM] [2] | SPR RESULT [2] | IC50 [3] | TR-FRET IC50 (nM) [3] | IC50 by HTRF TR-FRET, range in words ([3]; potency range or dose-response behaviour)
1 | COc1cccc(-n2nc(-c3cscn3)nc2-c2cn(C)c(=O)c3ccccc23)c1 [Compound 58, COC=1C=CC=C(C1)N2N=C(N=C2C3=CN(C)C(=O)C=4C=CC=CC34)C5=CSC=N5] | 2.28 °C | 75,54 ± 39,86 RUs | Negative | 511 nM | – | –
2 | Cc1cc(C(=O)NCCc2nc3cc(Cl)ccc3[nH]2)n2ncnc2n1 [Compound 78, CC=1C=C(C(=O)NCCC2=NC=3C=C(Cl)C=CC3N2)N4N=CN=C4N1] | 1.53 °C | 9,01 ± 0,76 RUs | Positive | 170 nM | – | –
3 | COC1(CNC(=O)c2nscc2Br)CN(C(=O)C2CCS(=O)(=O)N2)C1 (stereo not drawn) [Compound 63, COC1(CNC(=O)C2=NSC=C2Br)CN(C1)C(=O)C3CCS(=O)(=O)N3] | 0.7 °C | 13,51 ± 3,27 RUs | Negative | – | Negative | –
4 | COc1cccc(-n2c(C)nnc2SCC(=O)NC2CN(C(=O)C3CCOCC3)CC23CC3)c1 (stereo not drawn) [Compound 32, COC=1C=CC=C(C1)N2C(C)=NN=C2SCC(=O)NC3CN(CC43CC4)C(=O)C5CCOCC5] | 0.87 °C | 3,3 ± 1,9 RUs | Negative | 386 nM | – | –
5 | COC(=O)C1(NCC(=O)Nc2nnc(C)s2)CC(C)(C)OC(C)(C)C1 [Compound 92, COC(=O)C1(CC(C)(C)OC(C)(C)C1)NCC(=O)NC2=NN=C(C)S2] | 1.04 °C | 8,96 ± 1,15 RUs | Negative | 622 nM | – | –
6 | Cc1cc(C)n2nc(CNC(=NCCCN3CCOCC3)N3CCC(NC(=O)CBr)C3)nc2n1 (stereo not drawn) [Compound 93, BrCC(=O)NC1CCN(C1)C(=NCCCN2CCOCC2)NCC=3N=C4N=C(C)C=C(C)N4N3] | -0.58 °C | 20,44 ± 23,06 RUs | Negative | 470 nM | – | –
7 | Cc1nonc1CC(=O)N1CC(CC(C)NC(=O)c2nsnc2O)C1 (stereo not drawn) [Compound 90, CC(CC1CN(C1)C(=O)CC2=NON=C2C)NC(=O)C3=NSN=C3O] | 0.43 °C | 11,06 ± 3,73 RUs | Negative | 213 nM | – | –
8 | COC(C)CC(=O)N1CCC(C2(O)CCN(C(=O)c3sc4nnc(C)c(C)c4c3N)C2)CC1 (stereo not drawn) [Compound 39, COC(C)CC(=O)N1CCC(CC1)C2(O)CCN(C2)C(=O)C=3SC=4N=NC(C)=C(C)C4C3N] | 1.12 °C | 11,34 ± 6,3 RUs | Negative | 78.9 nM | – | –
9 | COc1ccc(-n2c(C)nnc2SCC(=O)NCc2cc(C)nc(C)c2)cc1 [Compound 44, COC=1C=CC(=CC1)N2C(C)=NN=C2SCC(=O)NCC=3C=C(C)N=C(C)C3] | 1.68 °C | 17,34 ± 14,82 RUs | Negative | 5.83 nM | – | –
10 | COc1ccc(-n2c(C)nnc2SCC(=O)NC2CCC3(CNC3)C2)cc1 (stereo not drawn) [Compound 49, COC=1C=CC(=CC1)N2C(C)=NN=C2SCC(=O)NC3CCC4(CNC4)C3] | 2.73 °C | 17,72 ± 5,47 RUs | Negative | 105 nM | – | –
11 | Cc1cn2cc(C(=O)NC(C)CC(C)NC(=O)c3ccsn3)sc2n1 (stereo not drawn) [Compound 91, CC(CC(C)NC(=O)C1=CN2C=C(C)N=C2S1)NC(=O)C=3C=CSN3] | 0.44 °C | 8,08 ± 2,94 RUs | Negative | 579 nM | – | –
12 | CC(NS(=O)(=O)c1cccc(-c2nnnn2C)c1)C1CCN(Cc2ccccc2)C1 (stereo not drawn) [Compound 46, CC(NS(=O)(=O)C=1C=CC=C(C1)C2=NN=NN2C)C3CCN(CC=4C=CC=CC4)C3] | 2.47 °C | 19,71 ± 0,01 RUs | Positive | 240 nM | – | –
13 | CN(C)S(=O)(=O)c1ccc(-n2nc(-c3cccnc3)nc2-c2cn(C)c(=O)c3ccccc23)cc1 [Compound 51, CN(C)S(=O)(=O)C=1C=CC(=CC1)N2N=C(N=C2C3=CN(C)C(=O)C=4C=CC=CC34)C=5C=CC=NC5] | 3.61 °C | 29,75 ± 5,31 RUs | Positive | 39.3 nM | – | –
14 | CNC(=O)C1(C(=O)N[C@@H]2CCCC[C@H]2NC(=O)c2cnsn2)CCC1 [Compound 65, CNC(=O)C1(CCC1)C(=O)N[C@@H]2CCCC[C@H]2NC(=O)C=3C=NSN3] | 0.32 °C | 7,82 ± 0,92 RUs | Negative | 28.7 nM | – | –
15 | Cc1ccc(-n2c(C)nnc2SCC(=O)N2CCOCCC23COC3)cc1 [Compound 94, CC1=NN=C(SCC(=O)N2CCOCCC32COC3)N1C=4C=CC(C)=CC4] | 1.19 °C | 3,87 ± 1,96 RUs | Negative | 27.9 nM | – | low nM
16 | CCCc1c(C(=O)N2CCC(F)(F)C(CNC(=O)c3nc(C)c(C)s3)C2)[nH]c(C)c1C(C)=O (stereo not drawn) [Compound 25, CCCC1=C(NC(C)=C1C(=O)C)C(=O)N2CCC(F)(F)C(CNC(=O)C3=NC(C)=C(C)S3)C2] | 2.41 °C | 22,43 ± 8,33 RUs | Negative | 149 nM | – | –
17 | CCOc1ccc(-n2nc(Cc3ccncc3)nc2-c2cn(C)c(=O)c3ccccc23)cc1 [Compound 21, CCOC=1C=CC(=CC1)N2N=C(CC=3C=CN=CC3)N=C2C4=CN(C)C(=O)C=5C=CC=CC45] | 2.33 °C | 38,73 ± 19,2 RUs | Negative | 552 nM | – | –
18 | CC(NC(=O)CC1(C)CCCO1)C1(O)CN(C(=O)c2nsnc2O)C1 (stereo not drawn) [Compound 89, CC(NC(=O)CC1(C)CCCO1)C2(O)CN(C2)C(=O)C3=NSN=C3O] | 0.19 °C | -1,39 ± 0,54 RUs | Negative | 155 nM | – | –
19 | CC(C)=CC(=O)NCCC1CCN(C(=O)c2cn(C)c(=O)c3ccccc23)C1 (stereo not drawn) [Compound 23, CC(=CC(=O)NCCC1CCN(C1)C(=O)C2=CN(C)C(=O)C=3C=CC=CC23)C] | 2.61 °C | 5,93 ± 1,05 RUs | Negative | 3.44 nM | – | –
20 | CCCc1c(C(=O)N2CCOC(CNC(=O)c3cc(C)ccn3)C2)[nH]c(C)c1C(C)=O (stereo not drawn) [Compound 40, CCCC1=C(NC(C)=C1C(=O)C)C(=O)N2CCOC(CNC(=O)C=3C=C(C)C=CN3)C2] | 1.13 °C | 9,46 ± 0,53 RUs | Positive | 372 nM | – | –
21 | CCCc1c(C(=O)N2CCCC2Cn2cc(-c3cc(C)nc(C)c3)nn2)[nH]c(C)c1C(C)=O (stereo not drawn) [Compound 61, CCCC1=C(NC(C)=C1C(=O)C)C(=O)N2CCCC2CN3C=C(N=N3)C=4C=C(C)N=C(C)C4] | 0.49 °C | 15,14 ± 5,89 RUs | Negative | 79.4 nM | – | –
22 | Cc1nnc(NC(=O)CNC(c2ccc(Cl)cc2)c2ccccc2C(C)C)s1 (stereo not drawn) [Compound 80, CC(C)C=1C=CC=CC1C(NCC(=O)NC2=NN=C(C)S2)C=3C=CC(Cl)=CC3] | -0.49 °C | 29,64 ± 5,36 RUs | Positive | 23.6 nM | – | –
23 | COc1ccc(NS(=O)(=O)c2cc(C(=O)Nc3ccc4nnc(C(C)C)n4c3)ccc2F)cc1 [Compound 14, COC=1C=CC(NS(=O)(=O)C=2C=C(C=CC2F)C(=O)NC=3C=CC4=NN=C(C(C)C)N4C3)=CC1] | 1.94 °C | 23,29 ± 9,67 RUs | Negative | 661 nM | – | –
24 | COc1cccc(-n2c(C)nnc2SCC(=O)Nc2ccc(C(F)F)cc2)c1 [Compound 43, COC=1C=CC=C(C1)N2C(C)=NN=C2SCC(=O)NC=3C=CC(=CC3)C(F)F] | 1.99 °C | 32,1 ± 9,99 RUs | Positive | 1590 nM | – | –
25 | Cc1cc(C)n2nc(NC(=O)N3CCc4cc(Cl)cc(Cl)c4C3)nc2n1 [Compound 77, CC=1C=C(C)N2N=C(NC(=O)N3CCC=4C=C(Cl)C=C(Cl)C4C3)N=C2N1] | 0.48 °C | 67,27 ± 12,19 RUs | Positive | 135 nM | – | –
26 | COc1cccc(-n2c(C)nnc2SCC(=O)N2CC(n3cc(-c4ccc(F)cn4)nn3)C2)c1 [Compound 37, COC=1C=CC=C(C1)N2C(C)=NN=C2SCC(=O)N3CC(C3)N4C=C(N=N4)C=5C=CC(F)=CN5] | 0.77 °C | 12,42 ± 11,24 RUs | Negative | – | Negative | –
27 | CC(=O)c1ccc(N2CCN(C(=O)Nc3nnc(C)s3)CC2)c(F)c1 [Compound 69, CC(=O)C=1C=CC(N2CCN(CC2)C(=O)NC3=NN=C(C)S3)=C(F)C1] | 0.61 °C | 23,49 ± 1,0 RUs | Positive | – | Negative | –
28 | CCCc1c(C(=O)N2CCOC(CN(C)C(=O)c3cccn3C)C2)[nH]c(C)c1C(C)=O (stereo not drawn) [Compound 26, CCCC1=C(NC(C)=C1C(=O)C)C(=O)N2CCOC(CN(C)C(=O)C3=CC=CN3C)C2] | 2.61 °C | 22,04 ± 8,53 RUs | Negative | 1020 nM | – | –
29 | Cc1nnnn1-c1cc(F)cc(C(=O)N2CCN(C(=O)C(=O)NCC3CC3)C(C(C)C)C2)c1 (stereo not drawn) [Compound 41, CC(C)C1CN(CCN1C(=O)C(=O)NCC2CC2)C(=O)C=3C=C(F)C=C(C3)N4N=NN=C4C] | 1.7 °C | 1,13 ± 7,64 RUs | Negative | – | Negative | –
